Laboratory results as given in patent US8093210B2, “Treatment of sepsis with 5-ethyl-1-phenyl-2(1H)-pyridone” (Solanan, Inc., priority 2008, dated 2012).
In brackets after ≈: the same amount, converted by molar mass. Read-outs that look alike come from different tables or passages of the source.

Legend:
[1] = system: LPS/D-galactosamine model of septic shock; assay: Lethal LPS/D-galactosamine-induced shock, survival of mice (Example 1); assay type: in vivo; conditions: for mortality: 72 hrs post-treatment
Method: Mice were treated with 5-EPP after inducing shock with lipopolysaccharide (LPS) pursuant to established models for lethal LPS-induced shock. The method described by Galanos C, Freudenberg M A, Reutter W. Proc Natl Acad Sci USA. 1979 November; 76 (11):5939-43 was followed. The survival of the mice after treatment with various doses of the agent in LPS/D-galactosamine model of septic shock was monitored. All agents were injected simultaneously via the intraperitoneal route and the response compared to a placebo agent (saline).
All data were analyzed by Fisher's exact test (Prism™ for Window 4.02, Graphpad Software, Inc., San Diego, Calif.). A value of P<0.05 was considered to be statistically significant.
Table 1 clearly illustrates that 5-ethyl-1-phenyl-2(1H)-pyridone (5-EPP) protected mice from lethal LPS/D-galactosamine-induced shock at 72 hrs post-treatment.

[2] = system: LPS/D-galactosamine-induced mortality; assay: LPS/D-galactosamine-induced mortality in mice, survival curve (Example 7, FIG. 2); assay type: in vivo; conditions: LPS 20 μg/kg + D-galactosamine 600 mg/kg, monitored 4 days
Method: The effects of treatment with 5-EPP on LPS/D-galactosamine-induced mortality was investigated in mice. At least 10 mice in each group were challenged with either a lethal dose of LPS (20 μg/kg) and D-galactosamine (600 mg/kg) or the same dose of LPS/D-galactosamine+different doses of 5-EPP by intraperitoneal route and the morality in each group was monitored at different times for 4 days in order to evaluate the protective effects of 5-EPP against LPS/D-galactosamine-induced mortality.
However, the survival of mice treated with 25 mg/kg of 5-EPP was 45% and 100% at 50 mg/kg, 100 mg/kg and 200 mg/kg with p≦0.0001 as determined by Chi square test.

TNF-α = assay: Serum TNF-α (ELISA) in LPS/D-galactosamine model of sepsis (Example 5); assay type: in vivo, mice; conditions: 90 minutes after the treatment
Method: (§1) Mice were treated simultaneously with LPS (10 μg/kg) and D-galactosamine (600 mg/kg) (Galanos C, Freudenberg M A, Reutter W. […] They were anesthetized with halothane and blood was collected at different times by cardiac puncture and centrifuged to separate serum. The serum levels of alanine transaminase (ALT) and aspartate transaminase (AST) were measured by a commercial diagnostic company (Idexx Laboratories). The serum levels of tumor necrosis factor-alpha (TNF-α), interleukin-6 (IL-6) and interleukin-12 (IL-12) were determined by commercially available mouse enzyme-linked immunosorbent assay (ELISA) kits (BD BioSciences, San Jose, Calif.).
(§2) The methodology utilized in Example 4 was used to measure and analyze the serum enzyme data for statistical significance. The serum levels of proinflammatory cytokines between the 5-EPP treated and saline control groups were analyzed for statistical significance by one-way ANOVA and a Tukey's multiple comparison test (Prism™ for Windows 4.02, Graphpad Software, Inc. San Diego, Calif.).

[3] = system: LPS/D-galactosamine-septic shock; assay: Lethal LPS/D-galactosamine septic shock in rats (Example 2); assay type: in vivo, Juvenile Sprague-Dawley rats; conditions: monitored for 66 hours
Method: The methodology utilized in Example 1 was used to treat rats. Juvenile Sprague-Dawley rats were induced with LPS/D-galactosamine-septic shock. The animals were monitored for 66 hours after treatment and the resulting data analyzed by the same statistical tests and criteria as in Example 1.

IL-6 = assay: Serum IL-6 (ELISA) in LPS/D-galactosamine model of sepsis (Example 5); assay type: in vivo, mice; conditions: 90 minutes after the treatment
Method: as §1, §2

THP-1 cells = assay: MTS cytotoxicity analysis on THP-1 cells; assay type: cell-based; conditions: LPS 1 ng/mL and 5-EPP 0-500 μg/mL for 12 hours
Method: Cytotoxicity analysis was performed on THP-1 cells treated with various concentrations of 5-EPP using the MTS (3-(4,5-dimethylthiazol-2-yl)-5-(3-carboxymethoxyphenyl)-2-(4-sulfophenyl)-2H-tetrazolium, inner salt) assay (Promega, Madison, Wis.).

[4] = system: LPS/D-galactosamine model of sepsis; assay: Serum alanine and aspartate transaminase in LPS/D-galactosamine model of sepsis (Example 5); assay type: in vivo, mice; conditions: 200 mg/kg ip with LPS (10 μg/kg)/D-galactosamine (600 mg/kg)
Method: Mice were treated simultaneously with LPS (10 μg/kg) and D-galactosamine (600 mg/kg) (Galanos C, Freudenberg M A, Reutter W. Proc Natl Acad Sci USA. 1979, 76 (11):5939-43) and 5-EPP (200 mg/kg) by intraperitoneal route in a separate set of experiments. They were anesthetized with halothane and blood was collected at different times by cardiac puncture and centrifuged to separate serum. The serum levels of alanine transaminase (ALT) and aspartate transaminase (AST) were measured by a commercial diagnostic company (Idexx Laboratories). The serum levels of tumor necrosis factor-alpha (TNF-α), interleukin-6 (IL-6) and interleukin-12 (IL-12) were determined by commercially available mouse enzyme-linked immunosorbent assay (ELISA) kits (BD BioSciences, San Jose, Calif.).
as §2

[5] = Solubility in water and isotonic saline (Example 9); assay type: physicochemical; conditions: for solubility: thermodynamic from solid, room temperature, colorless, clear solution, read-out: solubility (soluble at)
Method: All solutions were prepared by weighing the chemical, transferring his solid into a polypropylene tube or polystyrene tube and then adding either water or saline to the final desired volume. The compound was dissolved by intermittent mixing with a vortex mixer, gentle heating in a warm water bath (40-45° C.) and sonication (3×15 min.).

SMILES: CCc1ccc(=O)n(-c2ccccc2)c1 [5-EPP, 5-ethyl-1-phenyl-2-(1H)-pyridone]
- mortality ([1]; 25 mg/kg i.p. simultaneously with LPS/D-galactosamine): 30% mortality
- mortality ([1]; 50 mg/kg i.p. simultaneously with LPS/D-galactosamine): 5% mortality
- mortality ([1]; 100 mg/kg i.p. simultaneously with LPS/D-galactosamine): 0% mortality
- onset of lethal shock ([1]; lowest dose (25 mg/kg)): delay of the onset of lethal shock
- survival ([2]; 25 mg/kg ip): 45%
- survival ([2]; 50 mg/kg ip): 100%
- survival ([2]; 100 mg/kg ip): 100%
- survival ([2]; 200 mg/kg ip): 100%
- serum level of TNF-α (TNF-α; 12.5 mg/kg): 5,220 ± 1280 pg/mL
- serum level of TNF-α (TNF-α; 25 mg/kg): 2,780 ± 481 pg/mL
- serum level of TNF-α (TNF-α; 50 mg/kg): 576 ± 79 pg/mL
- serum level of TNF-α (TNF-α; 100 mg/kg): 340 ± 34 pg/mL
- mortality ([3]; 75 mg/kg): 14.3% mortality
- mortality ([3]; 200 mg/kg): 12.5% mortality
- serum level of IL-6 (IL-6; 50 mg/kg): 9,980 ± 564 pg/mL
- serum level of IL-6 (IL-6; 100 mg/kg): 5,111 ± 343 pg/mL
- serum level of IL-6 (IL-6; 200 mg/kg): 3,578 ± 421 pg/mL
- concentration at which cytotoxicity appears (no cytotoxicity below) (THP-1 cells): at least 300 μg/mL
- serum level of alanine transaminase ([4]; After 3 Hours): 109.4 ± 6.1 U/L
- serum level of aspartate transaminase ([4]; After 3 Hours): 131.3 ± 11.9 U/L
- serum level of alanine transaminase ([4]; After 6 Hours): 130.0 ± 8.9 U/L
- serum level of aspartate transaminase ([4]; After 6 Hours): 152.38 ± 14.4 U/L
- serum level of alanine transaminase ([4]; After 12 Hours): 109.5 ± 8.3 U/L
- serum level of aspartate transaminase ([4]; After 12 Hours): 173.38 ± 13.0 U/L
- Results (solubility) ([5]; DI Water, final 5-EPP 20.0 mg/mL): soluble
- Results (solubility) ([5]; Isotonic saline, final 5-EPP 20.0 mg/mL): soluble
- Results (solubility) ([5]; Isotonic saline, final 5-EPP 20.1 mg/mL): soluble
- solubility ([5]; saline or isotonic, saline): 20 mg/mL (≈ 100 mM)
- precipitation of dissolved compound ([5]; standing at room temperature overnight or following refrigeration): no precipitation was observed
- solubility ([5]; water): 20 mg/mL (≈ 100 mM)
- concentrations that do not completely dissolve ([5]; water or saline): ≥ 30000 µg/mL
